# Where a SMILES comes first, the peptide text is derived from it. Where no end group is shown, it is not given here.
# Legend:
# [1] = target: T1, binding of α4 β1 integrin to VCAM-1 (Homo sapiens, UniProt P05556+P13612); experiment: Cell-protein assay: calcein-labelled Ramos cells binding to VCAM-mouse IgG fusion protein on magnetic beads; format: cell-based; details: for peptide concentration at which binding of α4 β1 to VCAM-1 is significantly inhibited: less than about 100, assay format not stated
# T1 construct: endogenous in cells; host or cells: Ramos (human B-cell line) for endogenous α4β1; the VCAM-mouse IgG fusion was made in house, secreted from transfected COS cells and captured on goat anti-mouse IgG Dynal beads
# T1 sequence (P13612 34-1032): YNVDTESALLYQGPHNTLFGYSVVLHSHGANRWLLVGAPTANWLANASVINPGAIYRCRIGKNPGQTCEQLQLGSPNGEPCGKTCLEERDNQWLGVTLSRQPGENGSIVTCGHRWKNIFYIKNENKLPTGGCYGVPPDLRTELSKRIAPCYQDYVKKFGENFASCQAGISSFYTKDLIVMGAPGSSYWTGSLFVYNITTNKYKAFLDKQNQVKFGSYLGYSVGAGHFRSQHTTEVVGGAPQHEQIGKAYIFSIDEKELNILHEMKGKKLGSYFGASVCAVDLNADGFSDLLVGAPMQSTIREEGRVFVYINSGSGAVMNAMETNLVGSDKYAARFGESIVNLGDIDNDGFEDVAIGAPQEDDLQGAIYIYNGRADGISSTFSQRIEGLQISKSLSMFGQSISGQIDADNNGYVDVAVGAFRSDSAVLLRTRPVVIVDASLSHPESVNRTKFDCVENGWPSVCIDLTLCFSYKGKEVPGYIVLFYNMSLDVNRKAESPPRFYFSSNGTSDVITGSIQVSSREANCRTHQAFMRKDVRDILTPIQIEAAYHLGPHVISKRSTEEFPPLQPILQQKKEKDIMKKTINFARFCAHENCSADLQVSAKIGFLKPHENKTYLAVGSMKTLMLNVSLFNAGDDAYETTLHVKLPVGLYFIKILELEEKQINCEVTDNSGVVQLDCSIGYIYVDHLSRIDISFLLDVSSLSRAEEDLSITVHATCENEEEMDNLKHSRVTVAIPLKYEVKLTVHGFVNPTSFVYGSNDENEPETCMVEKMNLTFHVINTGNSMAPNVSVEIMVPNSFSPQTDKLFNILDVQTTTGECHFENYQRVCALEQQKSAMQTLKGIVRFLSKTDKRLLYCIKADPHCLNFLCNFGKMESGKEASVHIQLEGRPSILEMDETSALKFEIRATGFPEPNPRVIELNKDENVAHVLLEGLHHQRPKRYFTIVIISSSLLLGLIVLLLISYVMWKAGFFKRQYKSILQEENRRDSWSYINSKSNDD
# T1 sequence (P05556 21-798): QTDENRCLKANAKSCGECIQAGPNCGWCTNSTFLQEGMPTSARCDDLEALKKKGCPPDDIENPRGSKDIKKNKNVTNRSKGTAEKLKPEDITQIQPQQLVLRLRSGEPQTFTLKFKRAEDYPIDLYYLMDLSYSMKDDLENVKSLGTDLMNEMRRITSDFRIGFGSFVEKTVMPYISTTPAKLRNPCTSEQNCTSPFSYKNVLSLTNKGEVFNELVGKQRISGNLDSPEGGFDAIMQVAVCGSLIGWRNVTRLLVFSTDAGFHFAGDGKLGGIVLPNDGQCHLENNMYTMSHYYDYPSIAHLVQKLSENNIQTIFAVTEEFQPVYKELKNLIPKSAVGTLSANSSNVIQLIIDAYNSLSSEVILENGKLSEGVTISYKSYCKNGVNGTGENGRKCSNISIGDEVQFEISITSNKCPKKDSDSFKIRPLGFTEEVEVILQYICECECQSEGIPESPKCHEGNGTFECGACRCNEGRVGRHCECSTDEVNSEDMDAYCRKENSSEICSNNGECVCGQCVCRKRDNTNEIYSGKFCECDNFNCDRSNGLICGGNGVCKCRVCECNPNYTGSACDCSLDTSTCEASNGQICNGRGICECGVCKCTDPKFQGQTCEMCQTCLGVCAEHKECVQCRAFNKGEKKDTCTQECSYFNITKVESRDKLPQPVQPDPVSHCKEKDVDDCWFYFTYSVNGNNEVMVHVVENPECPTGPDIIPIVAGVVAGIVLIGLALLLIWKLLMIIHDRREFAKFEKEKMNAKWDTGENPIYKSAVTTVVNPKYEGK
# Description: The VCAM-1 binding assays involved assessing the ability of cells that express α4 β1 to bind cells expressing VCAM (cell-cell assay) or to bind purified VCAM protein (cell-protein assay). The integrin-expressing cell types used in these assays included the human B-cell line, Ramos, and the human promyelocytic line, HL-60. The cell-cell assay was used to compare the relative potency of peptides at a single dose. The cell-protein assay was used to generate dose response curves and determine IC50 values.
# An expression vector was designed such that a region of VCAM known to bind the integrin was-expressed as a fusion protein with mouse IgG. A cDNA containing the two N-terminal domains of human VCAM was generated by the polymerase chain reaction (PCR) from a full length VCAM cDNA. Similarly, a cDNA containing the hinge, CH2 and CH3 regions of mouse IgG2A was amplified by PCR from cDNA made from total RNA isolated from the hybridoma cell line 402C10. The VCAM cDNA was ligated to the mouse IgG cDNA and cloned into a mammalian expression vector. […] The media was collected and active protein was purified by immunoprecipitation using Dynal magnetic polystyrene beads coated with goat anti-mouse IgG. Following immunoprecipitation, the beads bound Ramos cells that expressed the integrin α4 β1.
# Ramos cells were fluorescently labeled with calcein AM (Molecular Probes) and resuspended in 1 ml of binding buffer (Hanks' balanced salt solution, pH 7.4, 1.0 mM CaCl2, 1.0 mM MgCl2 and 1.0 mM MnCl2). The beads (10 μl, 4×10^6 beads/ml) were placed in wells of a 96-well microtiter dish with 10 μl of peptide at various concentrations. The beads were incubated with 10 μl of labeled cells (10^7 cells/ml) for 10 min at room temperature. Following immobilization of the beads onto the plastic with a magnet, unbound cells were removed by washing three times with binding buffer. The remaining bound cells were lysed in 50 mM Tris, pH 7.4, 5.0 mM EDTA, 1.0% NP-40 and quantitated by fluorimetry using a Millipore Cytofluor 2350 fluorimeter. Dose response curves were calculated and IC50 values determined. Peptides having the amino acid residue sequences of SEQ ID NOs:8-102 were tested for their ability to inhibit the binding of α4 β1 integrin to VCAM-1.
# [2] = target: T2, binding of the integrin α4 β1 to VCAM (Homo sapiens, UniProt P05556+P13612); experiment: Cell-cell assay: 35S-labelled Ramos cells binding to VCAM expressing CHO cells; format: cell-based; details: single concentration at which SEQ ID NO:9 gives approximately 50% inhibition of adhesion; SEQ ID NO:9 = 1.00; >2.00 indicates little or no inhibition of VCAM-α4 β1 binding
# T2 construct: endogenous in cells; host or cells: Ramos (human B-cell line) for endogenous α4β1; CHO cells stably transfected with human VCAM cDNA for the counter-receptor
# T2 sequence (P13612 34-1032): as the sequence (P13612 34-1032) above
# T2 sequence (P05556 21-798): as the sequence (P05556 21-798) above
# Description: The VCAM-1 binding assays involved assessing the ability of cells that express α4 β1 to bind cells expressing VCAM (cell-cell assay) or to bind purified VCAM protein (cell-protein assay). The integrin-expressing cell types used in these assays included the human B-cell line, Ramos, and the human promyelocytic line, HL-60. The cell-cell assay was used to compare the relative potency of peptides at a single dose. The cell-protein assay was used to generate dose response curves and determine IC50 values. A human VCAM cDNA was amplified by the polymerase chain reaction (PCR) from cDNA reverse transcribed from RNA isolated from human umbilical vein endothelial cells. The VCAM cDNA was ligated into a mammalian expression vector and electroporated into chinese hamster ovary (CHO) cells. Cells were grown in G418 selective media and clones expressing high levels of VCAM were selected by FACS analysis. VCAM expressing CHO cells and nontransfected CHO cells were plated in 48 well cluster dishes at a density of 50,000 cells/well 24 hour prior to assay. The dishes were washed with binding buffer (DMEM, 1% BSA, 1.0 mM MnCl2, 0.02% sodium azide, pH 7.4) immediately prior to assay. […] Unbound cells were removed by washing with binding buffer and the remaining bound cells were lysed with 50 mM Tris, pH 8.0, 150 mM NaCl, 1% SDS and transferred to scintillation vials for quantitation.
Compound,peptide concentration at which binding of α4 β1 to VCAM-1 is significantly inhibited [1],relative quantity of adhered cells in relationship to peptide SEQ ID NO:9 [2],IC50 ([1]; independent cell-protein based assays) [µM]
"CC(=O)N[C@@H](Cc1c[nH]c2ccccc12)C(=O)N[C@@H](CC(C)C)C(=O)N[C@@H](CC(=O)O)C(=O)N[C@H](C(N)=O)C(C)C [SEQ ID NO:11, Ac-Trp-Leu-Asp-Val-amide] (Ac-WLDV-NH2)",less than 100 μM,,
"CC(C)C[C@H](NC(=O)[C@@H](N)Cc1ccccc1)C(=O)N[C@@H](CC(=O)O)C(=O)N[C@H](C(N)=O)C(C)C [SEQ ID NO:25, Phe-Leu-Asp-Val-amide] (H-FLDV-NH2)",less than 100 μM,,
"EWLDV-NH2 [SEQ ID NO:13, Glu-Trp-Leu-Asp-Val-amide]",less than 100 μM,,
"EWLDV-OH [SEQ ID NO:14, Glu-Trp-Leu-Asp-Val-acid]",less than 100 μM,,
"GPEWLDVP-NH2 [SEQ ID NO:9, Gly-Pro-Glu-Trp-Leu-Asp-Val-Pro-amide]",,1.00,30

# — patent US5510332A, “Process to inhibit binding of the integrin α4 62 1 to VCAM-1 or fibronectin and linear peptides therefor” (priority 1994, dated 1996)
